Source: US10941132B2, “Pyrazole derivatives” (HUA MEDICINE (SHANGHAI) Ltd., priority 2016, dated 2021)
Like-named read-outs stand apart in the source and are kept apart here.

Molecular target: T1, recombinant rat mGluR5 (Rattus norvegicus, UniProt P31424)
T1 construct: expressed in transfected cells
Experiment: Functional calcium flux assay (FLIPR), antagonist evaluation against glutamate-evoked [Ca2+]i increase
Type: cell-based
Conditions: HEK293 cells stably expressing recombinant rat mGluR5, 15 min incubation of test compound, then submaximal glutamate
Description: Functional Calcium Clux Assay Methodology
For functional assays, HEK293 cells stably expressing recombinant rat mGluR5 were seeded in 384-well plates and dye loaded using Fluo-8. Cells were then washed to remove the un-incorporated dye. Antagonist evaluation was performed following a 15 min incubation of the test compound followed by the addition of submaximal concentration of glutamate. Intracellular calcium ([Ca^2+]i) measurements were performed using a fluorometric imaging plate reader (FLIPR, Molecular Devices). The glutamate-evoked increase in [Ca^2′]i in the presence of the test compounds was compared to the response to glutamate alone (the positive control). Antagonist inhibition curves were fitted with a 4-parameter logistic equation giving IC50 values, and Hill coefficients using an iterative nonlinear curve fitting algorithm.
The tables below provide IC50 data in this assay. In the activity column, A=IC50>1,000 and ≤5,000 nM; B=IC50>500 and ≤1,000 nM and C=IC50≤500 nM.

[1] = Table 2, read-out: IC50 (FLIPR assay)
[2] = Table 1, read-out: IC50 value (FLIPR assay)

T1 sequence (P31424 21-1203): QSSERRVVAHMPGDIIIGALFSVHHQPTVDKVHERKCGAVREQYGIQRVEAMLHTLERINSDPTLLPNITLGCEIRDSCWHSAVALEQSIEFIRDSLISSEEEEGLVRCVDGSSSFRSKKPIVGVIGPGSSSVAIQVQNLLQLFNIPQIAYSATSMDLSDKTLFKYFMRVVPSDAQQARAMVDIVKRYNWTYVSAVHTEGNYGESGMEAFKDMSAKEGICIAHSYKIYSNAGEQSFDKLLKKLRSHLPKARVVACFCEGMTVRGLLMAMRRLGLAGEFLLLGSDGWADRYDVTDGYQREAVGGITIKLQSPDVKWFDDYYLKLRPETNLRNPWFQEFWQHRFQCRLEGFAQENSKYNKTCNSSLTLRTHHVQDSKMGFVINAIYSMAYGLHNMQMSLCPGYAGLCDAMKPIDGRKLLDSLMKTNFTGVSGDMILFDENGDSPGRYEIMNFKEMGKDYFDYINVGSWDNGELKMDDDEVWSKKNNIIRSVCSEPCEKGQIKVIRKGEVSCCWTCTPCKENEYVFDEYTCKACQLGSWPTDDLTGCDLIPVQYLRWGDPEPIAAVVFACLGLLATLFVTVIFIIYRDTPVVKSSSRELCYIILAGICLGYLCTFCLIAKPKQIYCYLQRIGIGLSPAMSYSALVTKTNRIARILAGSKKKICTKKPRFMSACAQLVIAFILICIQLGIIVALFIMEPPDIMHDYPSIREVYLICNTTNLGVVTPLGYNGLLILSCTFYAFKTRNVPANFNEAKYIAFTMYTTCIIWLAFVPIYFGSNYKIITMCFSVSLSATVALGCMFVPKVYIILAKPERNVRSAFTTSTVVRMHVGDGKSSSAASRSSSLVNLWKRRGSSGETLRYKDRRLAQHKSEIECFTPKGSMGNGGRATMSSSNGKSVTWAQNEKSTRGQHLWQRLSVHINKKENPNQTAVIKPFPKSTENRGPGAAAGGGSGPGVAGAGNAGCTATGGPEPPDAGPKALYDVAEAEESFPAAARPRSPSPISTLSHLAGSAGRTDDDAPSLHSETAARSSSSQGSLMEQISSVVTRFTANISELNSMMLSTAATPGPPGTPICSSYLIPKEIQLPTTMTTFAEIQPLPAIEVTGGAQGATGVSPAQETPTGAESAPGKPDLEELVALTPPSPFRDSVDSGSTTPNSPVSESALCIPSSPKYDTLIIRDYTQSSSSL

Structure (SMILES) | IC50 [1] | IC50 [2]
N#Cc1cc(F)cc(-n2ccc(C#Cc3cnccn3)n2)c1 [Compound 111, 3-fluoro-5-(3-(pyrazin-2-ylethynyl)-1H-pyrazol-1-yl)benzonitrile] | ≤ 500 nM | –
N#Cc1cc(F)cc(-n2ccc(C#Cc3ccnc(Cl)c3)n2)c1 [Compound 108, 3-(3-((2-chloropyridin-4-yl)ethynyl)-1H-pyrazol-1-yl)-5-fluorobenzonitrile] | ≤ 500 nM | –
Fc1ccc(-n2cc(C#Cc3cnccn3)cn2)cc1 [Compound 88, 2-((1-(4-fluorophenyl)-1H-pyrazol-4-yl)ethynyl)pyrazine] | – | ≤ 500 nM
N#Cc1cc(F)cc(-n2cc(C#Cc3ncccn3)c(Cl)n2)c1 [Compound 39, 3-(3-chloro-4-(pyrimidin-2-ylethynyl)-1H-pyrazol-1-yl)-5-fluorobenzonitrile] | – | ≤ 500 nM
Cc1cc(C#Cc2ncccn2)nn1-c1ccc(OC(F)(F)F)cc1 [Compound 133, 2-((5-methyl-1-(4-(trifluoromethoxy)phenyl)-1H-pyrazol-3-yl)ethynyl)pyrimidine] | 1000 to 5000 nM | –
Cc1cc(C#Cc2ncccn2)nn1-c1ccc(F)cc1 [Compound 128, 2-((1-(4-fluorophenyl)-5-methyl-1H-pyrazol-3-yl)ethynyl)] | 1000 to 5000 nM | –
N#Cc1cc(F)cc(-n2cc(C#Cc3cccnc3)cn2)c1 [Compound 76, 3-fluoro-5-(4-(pyridin-3-ylethynyl)-1H-pyrazol-1-yl)benzonitrile] | – | 1000 to 5000 nM
FC(F)(F)Oc1ccc(-n2ncc(C#Cc3ccccn3)c2Cl)cc1 [Compound 21] | – | ≤ 500 nM
Cc1c(C#Cc2ccccn2)c(N(C)C)nn1-c1cc(F)cc(C#N)c1 [Compound 15, 3-(3-(dimethylaminuteso)-5-methyl-4-(2-(pyridin-2-yl)ethynyl)-1H-pyrazol-1-yl)-5-fluorobenzonitrile] | – | 1000 to 5000 nM
CN(C)CCOc1nn(-c2cc(F)cc(C#N)c2)cc1C#Cc1ccccn1 [Compound 53, 3-(3-(2-(dimethylamino)ethoxy)-4-(pyridin-2-ylethynyl)-1H-pyrazol-1-yl)-5-fluorobenzonitrile] | – | 1000 to 5000 nM
COCCOc1nn(-c2cc(F)cc(C#N)c2)cc1C#Cc1ccccn1 [Compound 32, 3-fluoro-5-(3-(2-methoxyethoxy)-4-(pyridin-2-ylethynyl)-1H-pyrazol-1-yl)benzonitrile] | – | ≤ 500 nM
COCCOc1ccc(-n2cc(C#Cc3ccccn3)cn2)cn1 [Compound 28, 2-(2-methoxyethoxy)-5-(4-(pyridin-2-ylethynyl)-1H-pyrazol-1-yl) pyridine] | – | ≤ 500 nM
Cc1cc(C#Cc2cccc(Cl)c2)nn1-c1cc(F)cc(C#N)c1 [Compound 99, 3-(3-((3-chlorophenyl)ethynyl)-5-methyl-1H-pyrazol-1-yl)-5-fluorobenzonitrile] | ≤ 500 nM | –
Cc1nn(-c2ccc(OC(F)(F)F)cc2)c(C)c1C#Cc1ccccn1 [Compound 4, 2-((3,5-dimethyl-1-(4-(trifluoromethoxy)phenyl)-H-pyrazol-4-yl)ethynyl)pyridine] | – | ≤ 500 nM
FC(F)(F)Oc1ccc(-n2cc(C#Cc3ccccc3)cn2)cc1 [Compound 89, 4-(phenylethynyl)-1-(4-(trifluoromethoxy)phenyl)-1H-pyrazole] | – | 1000 to 5000 nM
Cc1nn(-c2ccc(F)nc2)c(C)c1C#Cc1ccccn1 [Compound 24] | – | ≤ 500 nM
C(#Cc1ccn(-c2ccccn2)n1)c1ccccn1 [Compound 71, 2-((1-(pyridin-2-yl)-1H-pyrazol-3-yl)ethynyl)pyridine] | ≤ 500 nM | –
FC(F)(F)Oc1ccc(-n2cc(C#Cc3ncccn3)cn2)cc1 [Compound 93] | – | ≤ 500 nM
Fc1ccc(-n2cc(C#Cc3ncccn3)cn2)cn1 [Compound 34, 2-((1-(6-fluoropyridin-3-yl)-1H-pyrazol-4-yl)ethynyl)pyrimidine] | – | ≤ 500 nM

Structure (SMILES) | IC50 [1] | IC50 [2]
N#Cc1cc(F)cc(-n2cc(C#Cc3ncccn3)c(C3CC3)n2)c1 [Compound 55, 3-(3-cyclopropyl-4-(pyrimidin-2-ylethynyl)-1H-pyrazol-1-yl)-5-fluorobenzonitrile] | – | ≤ 500 nM
Fc1ccc(-n2cc(C#Cc3ccccn3)cn2)nc1 [Compound 27, 5-fluoro-2-(4-(pyridin-2-ylethynyl)-1H-pyrazol-1-yl)pyridine] | – | ≤ 500 nM
Fc1cncc(-n2ccc(C#Cc3ccccn3)n2)c1 [Compound 70, 3-fluoro-5-(3-(pyridin-2-ylethnyl)-1H-pyrazol-1-yl)pyridine] | ≤ 500 nM | –
FC(F)(F)Oc1ccc(-n2cc(C#Cc3cccnc3)cn2)cc1 [Compound 91, 3-((1-(4-(trifluoromethoxy)phenyl)-H-pyrazol-4-yl)ethynyl)pyridine] | – | 1000 to 5000 nM
N#Cc1cc(F)cc(-n2cc(C#Cc3ncccn3)cn2)c1 [Compound 78, 3-fluoro-5-(4-(pyrimidin-2-ylethynyl)-1H-pyrazol-1-yl) benzonitrile] | – | ≤ 500 nM
N#Cc1cc(F)cc(-n2ccc(C#Cc3cccnc3)n2)c1 [Compound 106, 3-fluoro-5-(3-(pyridin-3-ylethynyl)-1H-pyrazol-1-yl)benzonitrile] | 1000 to 5000 nM | –
N#Cc1cc(F)cc(-n2ccc(C#Cc3ncccn3)n2)c1 [Compound 109, 3-fluoro-5-(3-(pyrimidin-2-ylethynyl)-1H-pyrazol-1-yl)benzonitrile] | ≤ 500 nM | –
COc1nn(-c2ccc(OC(F)(F)F)cc2)c(C)c1C#Cc1ccccn1 [Compound 7, 2-((3-methoxy-5-methyl-1-(4-(trifluoromethoxy)phenyl)-1H-pyrazol-4-yl)ethynyl)pyridine] | – | ≤ 500 nM
Fc1ccc(-n2cc(C#Cc3cccc(Cl)c3)cn2)cc1 [Compound 84, 4-((3-chlorophenyl)ethynyl)-1-(4-fluorophenyl)-1H-pyrazole] | – | ≤ 500 nM
Fc1ccc(-n2ncc(C#Cc3ccccn3)c2Cl)cn1 [Compound 18] | – | ≤ 500 nM
Fc1ccc(-n2cc(C#Cc3cccnc3)cn2)cc1 [Compound 83, 3-((1-(4-fluorophenyl)-1H-pyrazol-4-yl)ethynyl)pyridine] | – | ≤ 500 nM
FC(F)(F)Oc1ccc(-n2ccc(C#Cc3cccnc3)n2)cc1 [Compound 121, 3-((1-(4-(trifluoromethoxy)phenyl)-1H-pyrazol-3-yl)ethynyl) pyridine] | 1000 to 5000 nM | –
Cc1nn(-c2cc(F)cc(C#N)c2)c(C)c1C#Cc1ccccn1 [Compound 5] | – | ≤ 500 nM
COc1c(C#Cc2ccccn2)cnn1-c1ccc(F)cn1 [Compound 62, 5-fluoro-2-(5-methoxy-4-(pyridin-2-ylethynyl)-1H-pyrazol-1-yl)] | – | ≤ 500 nM
FC(F)(F)Oc1ccc(-n2cc(C#Cc3ccccn3)cn2)cc1 [Compound 90, 2-((1-(4-(trifluoromethoxy)phenyl)-1H-pyrazol-4-yl)ethynyl)pyridine] | – | ≤ 500 nM
Fc1ccc(-n2cc(C#Cc3ncccn3)cn2)cc1 [Compound 86, 2-((1-(4-fluorophenyl)-H-pyrazol-4-yl)ethynyl)pyrimidine] | – | ≤ 500 nM
N#Cc1cc(F)cc(-n2cc(C#Cc3ccccn3)c(OC(F)F)n2)c1 [Compound 47, 3-(3-(difluoromethoxy)-4-(pyridin-2-ylethynyl)-1H-pyrazol-1-yl)-5-fluorobenzonitrile] | – | ≤ 500 nM
Cc1nn(-c2ccc(F)cc2)c(C)c1C#Cc1ccncn1 [Compound 3, 4-((1-(4-fluorophenyl)-3,5-dimethyl-1H-pyrazol-4-yl)ethynyl) pyrimidine] | – | ≤ 500 nM
Cc1cc(C#Cc2ccccc2)nn1-c1cc(F)cc(C#N)c1 [Compound 96, 3-fluoro-5-(5-methyl-3-(phenylethynyl)-1H-pyrazol-1-yl) benzonitrile] | ≤ 500 nM | –
